Read-outs that look alike come from different tables or passages of the source.
Assays:
Format in all cases: cell-based
[1] = molecular target: AXL (phospho-AXL, Gas6-stimulated A-172 glioblastoma cells) (Homo sapiens (Human), UniProt P30530); test: AXL autophosphorylation ELISA in A-172 cells (Example E); details: cellular activity, read-out: Axl IC50
Method in brief: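 Phospho-AXL in lysates was quantified by ELISA, normalised to DMSO (100%) and reference inhibitor (0%) controls. IC50 by 4-parameter logistic fit.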

[2] = molecular target: Met (phospho-Met, HGF-stimulated PC-3 prostate cancer cells) (Homo sapiens (Human), UniProt P08581); test: Met autophosphorylation ELISA in PC-3 cells (Example F); details: cellular activity, read-out: c-Met IC50
Sequence of Met (phospho-Met, HGF-stimulated PC-3 prostate cancer cells) (P08581 25-1390): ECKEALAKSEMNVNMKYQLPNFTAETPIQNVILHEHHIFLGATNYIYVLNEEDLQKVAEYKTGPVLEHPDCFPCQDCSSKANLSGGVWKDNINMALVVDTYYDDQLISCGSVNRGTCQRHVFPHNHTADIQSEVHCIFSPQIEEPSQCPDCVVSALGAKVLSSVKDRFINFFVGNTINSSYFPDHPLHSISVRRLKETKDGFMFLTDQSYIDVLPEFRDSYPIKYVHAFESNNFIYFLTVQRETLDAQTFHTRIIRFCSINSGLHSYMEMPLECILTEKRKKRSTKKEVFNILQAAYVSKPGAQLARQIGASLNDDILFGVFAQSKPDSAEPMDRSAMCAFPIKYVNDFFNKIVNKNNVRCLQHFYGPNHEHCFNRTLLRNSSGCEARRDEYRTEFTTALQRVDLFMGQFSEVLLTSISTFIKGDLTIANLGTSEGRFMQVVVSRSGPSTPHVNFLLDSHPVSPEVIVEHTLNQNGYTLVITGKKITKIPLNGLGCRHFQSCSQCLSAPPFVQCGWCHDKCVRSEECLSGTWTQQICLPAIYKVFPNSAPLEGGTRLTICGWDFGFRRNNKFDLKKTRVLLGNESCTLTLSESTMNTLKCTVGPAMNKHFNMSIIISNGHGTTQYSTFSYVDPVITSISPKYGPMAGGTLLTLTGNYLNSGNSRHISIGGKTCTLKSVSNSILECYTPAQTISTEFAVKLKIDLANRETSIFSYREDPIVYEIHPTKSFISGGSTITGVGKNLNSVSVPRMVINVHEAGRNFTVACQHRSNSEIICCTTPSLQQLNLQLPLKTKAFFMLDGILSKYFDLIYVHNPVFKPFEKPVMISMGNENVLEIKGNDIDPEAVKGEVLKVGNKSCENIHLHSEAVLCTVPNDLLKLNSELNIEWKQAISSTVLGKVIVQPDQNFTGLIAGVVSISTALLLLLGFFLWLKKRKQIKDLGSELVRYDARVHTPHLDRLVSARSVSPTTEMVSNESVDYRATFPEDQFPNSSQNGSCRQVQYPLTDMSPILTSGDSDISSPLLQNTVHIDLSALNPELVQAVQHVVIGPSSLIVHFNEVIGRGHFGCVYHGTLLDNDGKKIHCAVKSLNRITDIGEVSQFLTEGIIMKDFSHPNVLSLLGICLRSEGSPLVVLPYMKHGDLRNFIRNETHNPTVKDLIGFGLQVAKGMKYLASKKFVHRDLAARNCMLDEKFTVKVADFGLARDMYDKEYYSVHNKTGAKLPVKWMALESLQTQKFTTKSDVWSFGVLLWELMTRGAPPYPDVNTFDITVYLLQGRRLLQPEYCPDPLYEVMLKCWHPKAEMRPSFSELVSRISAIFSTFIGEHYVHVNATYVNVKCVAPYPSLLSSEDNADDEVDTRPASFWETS
Method in brief: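 PC-3 cells, serum-starved 3 h, were treated with compounds (8-point dose curve, 0.3% DMSO final) for 1 h, then stimulated with 100 ng/mL recombinant human HGF for 10 min. Lysate phospho-Met (panTyr) was quantified by sandwich ELISA; IC50 from 4-parameter logistic fit.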

[3] = molecular target: KDR (phospho-KDR, VEGF165-stimulated HUVEC cells) (Homo sapiens (Human), UniProt P35968); test: KDR autophosphorylation ELISA in HUVEC cells (Example G); details: cellular activity
Sequence of KDR (phospho-KDR, VEGF165-stimulated HUVEC cells) (P35968 20-1356): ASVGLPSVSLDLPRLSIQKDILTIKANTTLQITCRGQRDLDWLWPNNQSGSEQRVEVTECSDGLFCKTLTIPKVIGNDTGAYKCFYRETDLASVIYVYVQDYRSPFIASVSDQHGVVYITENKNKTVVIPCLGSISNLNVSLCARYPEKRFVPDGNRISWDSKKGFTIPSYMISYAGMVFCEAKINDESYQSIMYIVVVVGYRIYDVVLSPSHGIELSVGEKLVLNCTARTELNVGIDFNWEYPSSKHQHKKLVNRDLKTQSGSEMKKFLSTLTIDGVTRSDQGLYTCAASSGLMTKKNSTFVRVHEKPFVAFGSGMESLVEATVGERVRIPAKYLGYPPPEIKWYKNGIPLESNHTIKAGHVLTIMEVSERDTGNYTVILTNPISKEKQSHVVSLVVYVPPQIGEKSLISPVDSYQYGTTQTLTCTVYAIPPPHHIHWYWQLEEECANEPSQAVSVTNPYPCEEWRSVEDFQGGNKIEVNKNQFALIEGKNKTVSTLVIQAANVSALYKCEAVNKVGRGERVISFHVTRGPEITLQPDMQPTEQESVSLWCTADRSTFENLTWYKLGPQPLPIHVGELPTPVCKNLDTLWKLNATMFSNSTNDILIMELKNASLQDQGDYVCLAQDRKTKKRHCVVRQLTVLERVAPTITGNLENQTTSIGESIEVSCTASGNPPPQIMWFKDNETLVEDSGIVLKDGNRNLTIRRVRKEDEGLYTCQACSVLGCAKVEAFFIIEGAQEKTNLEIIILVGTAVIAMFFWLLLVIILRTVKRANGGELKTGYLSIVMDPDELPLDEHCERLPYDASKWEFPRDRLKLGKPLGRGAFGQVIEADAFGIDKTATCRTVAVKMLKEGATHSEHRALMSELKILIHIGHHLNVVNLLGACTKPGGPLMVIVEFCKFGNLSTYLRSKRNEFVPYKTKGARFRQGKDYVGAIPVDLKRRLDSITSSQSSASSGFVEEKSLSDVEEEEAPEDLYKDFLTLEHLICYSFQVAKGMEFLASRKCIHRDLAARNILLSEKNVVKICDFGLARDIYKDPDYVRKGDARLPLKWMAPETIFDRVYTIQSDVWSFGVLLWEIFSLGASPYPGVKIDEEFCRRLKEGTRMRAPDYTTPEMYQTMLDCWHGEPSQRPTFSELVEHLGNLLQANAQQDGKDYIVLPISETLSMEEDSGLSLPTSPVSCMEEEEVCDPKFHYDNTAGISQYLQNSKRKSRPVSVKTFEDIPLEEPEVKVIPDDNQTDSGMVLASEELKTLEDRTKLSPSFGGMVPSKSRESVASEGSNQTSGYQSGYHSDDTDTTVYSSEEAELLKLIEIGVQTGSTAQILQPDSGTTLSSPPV
Method in brief: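 Cells seeded, grown 24 h at 37 °C, starved 24 h serum-free; cpd 8-pt curve, 0.3% DMSO, 1 h; VEGF165 100 ng/mL, 5 min; cold PBS wash, lysis with orthovanadate and protease/phosphatase inhibitors; pKDR ELISA; IC50 by 4-parameter logistic regression.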

[4] = molecular target: Mer (phospho-Mer, MERTK-transfected 293A cells) (Homo sapiens (Human), UniProt Q12866); test: Mer autophosphorylation ELISA in transient transfected 293A cells (Example H); details: cellular activity
Sequence of Mer (phospho-Mer, MERTK-transfected 293A cells) (Q12866 21-999): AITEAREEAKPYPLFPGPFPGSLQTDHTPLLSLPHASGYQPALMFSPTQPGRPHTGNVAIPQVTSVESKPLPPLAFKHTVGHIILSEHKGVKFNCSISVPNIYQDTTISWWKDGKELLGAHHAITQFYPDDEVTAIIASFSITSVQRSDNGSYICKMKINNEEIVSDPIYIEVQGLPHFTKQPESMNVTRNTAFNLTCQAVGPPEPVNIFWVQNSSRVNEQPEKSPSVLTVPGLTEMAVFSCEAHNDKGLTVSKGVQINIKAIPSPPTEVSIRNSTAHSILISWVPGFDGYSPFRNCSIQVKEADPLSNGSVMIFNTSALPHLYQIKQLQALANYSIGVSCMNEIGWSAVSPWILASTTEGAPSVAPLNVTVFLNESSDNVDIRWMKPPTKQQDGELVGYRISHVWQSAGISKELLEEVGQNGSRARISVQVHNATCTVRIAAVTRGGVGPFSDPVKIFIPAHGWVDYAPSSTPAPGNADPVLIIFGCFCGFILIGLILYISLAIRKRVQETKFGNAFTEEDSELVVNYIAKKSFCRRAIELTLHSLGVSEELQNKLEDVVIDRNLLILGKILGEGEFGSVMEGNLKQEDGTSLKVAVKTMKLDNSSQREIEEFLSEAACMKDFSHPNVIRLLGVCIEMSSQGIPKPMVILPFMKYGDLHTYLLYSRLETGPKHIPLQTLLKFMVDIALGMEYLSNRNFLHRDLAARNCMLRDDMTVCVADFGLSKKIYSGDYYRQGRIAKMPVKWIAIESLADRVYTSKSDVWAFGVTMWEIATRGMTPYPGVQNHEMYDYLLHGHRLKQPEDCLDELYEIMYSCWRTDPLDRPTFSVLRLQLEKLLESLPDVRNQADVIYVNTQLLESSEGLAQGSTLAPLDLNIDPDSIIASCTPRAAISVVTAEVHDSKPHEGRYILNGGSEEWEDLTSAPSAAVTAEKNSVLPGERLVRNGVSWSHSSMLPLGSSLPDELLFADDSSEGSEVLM
Method in brief: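 293A cells transiently transfected with human MERTK were treated 1 h in serum-free medium with an 8-point compound dilution (0.3% DMSO final). Lysates were assayed by phospho-Mer sandwich ELISA against a phospho-Mer standard; IC50 came from a 4-parameter logistic fit, normalised to DMSO (100%) and reference-inhibitor (0%) controls.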

[5] = AXL autophosphorylation ELISA in A-172 cells
[6] = Met autophosphorylation ELISA in PC-3 cells
[7] = KDR autophosphorylation ELISA in HUVEC cells
[8] = Mer autophosphorylation ELISA in transient transfected 293A cells

Sequence of AXL (phospho-AXL, Gas6-stimulated A-172 glioblastoma cells) (P30530 26-894): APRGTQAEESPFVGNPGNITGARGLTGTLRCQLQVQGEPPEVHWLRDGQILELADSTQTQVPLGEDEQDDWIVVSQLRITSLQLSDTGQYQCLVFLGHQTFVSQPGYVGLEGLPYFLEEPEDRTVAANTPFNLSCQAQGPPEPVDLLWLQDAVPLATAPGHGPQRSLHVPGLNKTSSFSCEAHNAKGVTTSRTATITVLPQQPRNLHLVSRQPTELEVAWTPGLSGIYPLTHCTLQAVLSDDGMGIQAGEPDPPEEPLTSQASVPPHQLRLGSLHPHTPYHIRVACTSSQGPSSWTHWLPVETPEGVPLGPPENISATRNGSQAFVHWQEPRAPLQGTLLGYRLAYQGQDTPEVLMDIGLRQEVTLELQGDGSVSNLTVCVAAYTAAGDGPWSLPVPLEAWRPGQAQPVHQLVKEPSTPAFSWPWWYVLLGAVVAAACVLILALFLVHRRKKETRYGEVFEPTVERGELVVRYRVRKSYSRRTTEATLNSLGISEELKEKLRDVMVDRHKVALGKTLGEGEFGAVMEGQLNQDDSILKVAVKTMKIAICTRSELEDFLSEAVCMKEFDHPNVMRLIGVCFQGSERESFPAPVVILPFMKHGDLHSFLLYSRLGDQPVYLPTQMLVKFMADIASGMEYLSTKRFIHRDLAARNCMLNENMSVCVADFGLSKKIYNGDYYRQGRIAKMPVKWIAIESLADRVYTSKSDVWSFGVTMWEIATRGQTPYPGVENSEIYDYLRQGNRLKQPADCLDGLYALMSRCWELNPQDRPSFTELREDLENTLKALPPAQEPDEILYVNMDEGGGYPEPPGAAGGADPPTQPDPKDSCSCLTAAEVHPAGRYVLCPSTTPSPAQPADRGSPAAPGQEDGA

SMILES | IC50 [1, 5] | IC50 [2, 6] | IC50 [3, 7] | IC50 [4, 8] | IC50 ([1]; A-172 cells) | IC50 ([2]; PC-3 cells) | IC50 ([3]; HUVEC cells) | IC50 ([4]; transfected 293A cells)
COc1cc2nccc(Oc3ccc(NC(=O)c4cn5c(c(-c6ccc(F)cc6)c4=O)COCC5)cc3F)c2nc1OC [Compound 564, N-[4-[(6,7-Dimethoxy-1,5-naphthyridin-4-yl)oxy]-3-fluorophenyl]-9-(4-fluorophenyl)-8-oxo-3,4-dihydro-1H-pyrido[2,1-c][1,4]oxazine-7-carboxamide] | < 0.1 µM | < 0.1 µM | 0.1 to 0.3 µM | < 0.1 µM | – | – | – | –
COc1cc2nccc(Oc3ccc(NC(=O)c4c(C)c(C#N)c(C)n(-c5ccc(F)cc5)c4=O)cc3)c2nc1OC [Compound 320, 5-Cyano-N-[4-[(6,7-dimethoxy-1,5-naphthyridin-4-yl)oxy]phenyl]-1-(4-fluorophenyl)-4,6-dimethyl-2-oxopyridine-3-carboxamide] | < 0.1 µM | < 0.1 µM | > 0.3 µM | < 0.1 µM | – | – | – | –
C=Cc1c(C)c(C(=O)Nc2ccc(Oc3ccnc4cc(OCCOC)c(OC)nc34)c(F)c2)c(=O)n(-c2ccc(F)cc2)c1C [Compound 740, 5-ethenyl-N-[3-fluoro-4-[[6-methoxy-7-(2-methoxyethoxy)-1,5-naphthyridin-4-yl]oxy]phenyl]-1-(4-fluorophenyl)-4,6-dimethyl-2-oxopyridine-3-carboxamide] | < 0.1 µM | < 0.1 µM | < 0.1 µM | < 0.1 µM | – | – | – | –
COc1cnc2c(Oc3ccc(NC(=O)c4c(C)n(CCF)cc(-c5ccc(F)c(C)c5)c4=O)cc3F)ccnc2c1 [Compound 813, 1-(2-fluoroethyl)-N-[3-fluoro-4-[(7-methoxy-1,5-naphthyridin-4-yl)oxy]phenyl]-5-(4-fluoro-3-methylphenyl)-2-methyl-4-oxopyridine-3-carboxamide] | – | – | – | – | < 0.1 µM | < 0.1 µM | 0.1 to 0.3 µM | < 0.1 µM
CNc1nccc2c(Oc3ccc(NC(=O)c4cnc(C)c(-c5ccc(F)cc5)c4O)cc3)ccnc12 [Compound 387, 5-(4-fluorophenyl)-4-hydroxy-6-methyl-N-[4-[[8-(methylamino)-1,7-naphthyridin-4-yl]oxy]phenyl]pyridine-3-carboxamide] | < 0.1 µM | < 0.1 µM | < 0.1 µM | < 0.1 µM | – | – | – | –
COc1cnc2c(Oc3ccc(NC(=O)c4c(C)n(CC(F)F)cc(-c5ccc(F)c(C)c5)c4=O)cc3F)ccnc2c1 [Compound 814, 1-(2,2-difluoroethyl)-N-[3-fluoro-4-[(7-methoxy-1,5-naphthyridin-4-yl)oxy]phenyl]-5-(4-fluoro-3-methylphenyl)-2-methyl-4-oxopyridine-3-carboxamide] | – | – | – | – | < 0.1 µM | < 0.1 µM | > 0.3 µM | < 0.1 µM
COc1cc2nccc(Oc3ccc(NC(=O)c4c(C)c(F)c(C)n(-c5ccc(F)cc5)c4=O)cc3)c2nc1OC [Compound 325, N-[4-[(6,7-Dimethoxy-1,5-naphthyridin-4-yl)oxy]phenyl]-5-fluoro-1-(4-fluorophenyl)-4,6-dimethyl-2-oxopyridine-3-carboxamide] | < 0.1 µM | < 0.1 µM | < 0.1 µM | < 0.1 µM | – | – | – | –
COc1ccc(-c2c(C)ncc(C(=O)Nc3ccc(Oc4ccnc5cc(OC)cnc45)c(F)c3)c2O)c(OC)c1 [Compound 696, 5-(2,4-dimethoxyphenyl)-N-[3-fluoro-4-[(7-methoxy-1,5-naphthyridin-4-yl)oxy]phenyl]-4-hydroxy-6-methylpyridine-3-carboxamide] | > 0.3 µM | 0.1 to 0.3 µM | < 0.1 µM | < 0.1 µM | – | – | – | –
COc1cc2nccc(Oc3ccc(NC(=O)c4cc(C(C)=O)cn(-c5ccc(F)cc5)c4=O)cc3)c2nc1OC [Compound 359, 5-acetyl-N-[4-[(6,7-dimethoxy-1,5-naphthyridin-4-yl)oxy]phenyl]-1-(4-fluorophenyl)-2-oxopyridine-3-carboxamide] | < 0.1 µM | < 0.1 µM | > 0.3 µM | < 0.1 µM | – | – | – | –
COc1cc2nccc(Oc3ccc(NC(=O)c4nnc(C)c(-c5ccc(F)cc5)c4Cl)cc3F)c2nc1OC [Compound 488, 4-chloro-N-[4-[(6,7-dimethoxy-1,5-naphthyridin-4-yl)oxy]-3-fluorophenyl]-5-(4-fluorophenyl)-6-methylpyridazine-3-carboxamide] | 0.1 to 0.3 µM | > 0.3 µM | > 0.3 µM | < 0.1 µM | – | – | – | –
COc1cc(NC(=O)c2cn(C)c(C)c(-c3ccc(F)cc3)c2=O)ccc1Oc1ccnc2cc(OC)c(OC)nc12 [Compound 762, N-[4-[(6,7-dimethoxy-1,5-naphthyridin-4-yl)oxy]-3-methoxyphenyl]-5-(4-fluorophenyl)-1,6-dimethyl-4-oxopyridine-3-carboxamide] | < 0.1 µM | < 0.1 µM | < 0.1 µM | < 0.1 µM | – | – | – | –

The remaining lines, values ahead:

IC50 [1, 5] | IC50 [2, 6] | IC50 [3, 7] | IC50 [4, 8] | IC50 ([1]; A-172 cells) | IC50 ([2]; PC-3 cells) | IC50 ([3]; HUVEC cells) | IC50 ([4]; transfected 293A cells) | SMILES
< 0.1 µM | < 0.1 µM | < 0.1 µM | < 0.1 µM | – | – | – | – | COc1cc2nccc(Oc3ccc(NC(=O)c4c(C)c(C)cn(-c5ccc(F)cc5)c4=O)cc3F)c2nc1OC [Compound 679, N-[4-[(6,7-dimethoxy-1,5-naphthyridin-4-yl)oxy]-3-fluorophenyl]-1-(4-fluorophenyl)-4,5-dimethyl-2-oxopyridine-3-carboxamide]
< 0.1 µM | < 0.1 µM | 0.1 to 0.3 µM | < 0.1 µM | – | – | – | – | C=Cc1c(C)c(C(=O)Nc2ccc(Oc3ccnc4cc(OC)cnc34)c(F)c2)c(=O)n(-c2ccc(F)cc2)c1C [Compound 329, 5-ethenyl-N-[3-fluoro-4-[(7-methoxy-1,5-naphthyridin-4-yl)oxy]phenyl]-1-(4-fluorophenyl)-4,6-dimethyl-2-oxopyridine-3-carboxamide]
< 0.1 µM | < 0.1 µM | < 0.1 µM | < 0.1 µM | – | – | – | – | COc1cnc2c(Oc3ccc(NC(=O)c4c(CO)nc(C)c(-c5ccc(F)cc5)c4O)cc3F)ccnc2c1 [Compound 651, N-[3-fluoro-4-[(7-methoxy-1,5-naphthyridin-4-yl)oxy]phenyl]-5-(4-fluorophenyl)-4-hydroxy-2-(hydroxymethyl)-6-methylpyridine-3-carboxamide]
< 0.1 µM | < 0.1 µM | < 0.1 µM | < 0.1 µM | – | – | – | – | COc1cc2nccc(Oc3ccc(NC(=O)c4c(C)c(F)c(C)n(-c5ccc(F)cc5)c4=O)cc3F)c2nc1OC [Compound 324, N-[4-[(6,7-Dimethoxy-1,5-naphthyridin-4-yl)oxy]-3-fluorophenyl]-5-fluoro-1-(4-fluorophenyl)-4,6-dimethyl-2-oxopyridine-3-carboxamide]
< 0.1 µM | < 0.1 µM | < 0.1 µM | < 0.1 µM | – | – | – | – | CCOc1nc2c(Oc3ccc(NC(=O)c4c(C)nc(C)c(-c5ccc(F)cc5C)c4O)cc3F)ccnc2cc1OC [Compound 678, N-[4-[(6-ethoxy-7-methoxy-1,5-naphthyridin-4-yl)oxy]-3-fluorophenyl]-5-(4-fluoro-2-methylphenyl)-4-hydroxy-2,6-dimethylpyridine-3-carboxamide]
< 0.1 µM | < 0.1 µM | > 0.3 µM | < 0.1 µM | – | – | – | – | COc1cc(Oc2ccnc3cc(OC)c(OC)nc23)c(F)cc1NC(=O)c1cn(C)c(C)c(-c2ccc(F)cc2)c1=O [Compound 743, N-[4-[(6,7-dimethoxy-1,5-naphthyridin-4-yl)oxy]-5-fluoro-2-methoxyphenyl]-5-(4-fluorophenyl)-1,6-dimethyl-4-oxopyridine-3-carboxamide]

Source: patent publication US12371428B2 (Exelixis, Inc., priority 2019, dated 2025)
